Experimental data reported in ChEMBL document CHEMBL5532643, “Design and synthesis of etrasimod derivatives as potent antibacterial agents against Gram-positive bacteria” (Eur J Med Chem, 2024).
Values after ≈ are worked out from the molar mass of the structure shown. Values joined by “and” are separate entries in the source; they are usually repeats but may differ in a detail not shown here. Equal values may be shown once. Active and inactive are the calls of the source. The rule behind the calls is not given here.

Key:
Enterococcus faecium = assay: Antibacterial activity against vancomycin-resistant Enterococcus faecium ATCC 700221 assessed as reduction in bacterial growth incubated for 18 to 20 hrs by broth microdilution assay; assay type: functional; conditions: time 18-20 hrs
[1] = tested on: Staphylococcus epidermidis; assay: Antibacterial activity against Staphylococcus epidermidis RP62A assessed as reduction in bacterial growth incubated for 18 to 20 hrs by broth microdilution assay; assay type: functional; conditions: time 18-20 hrs
Staphylococcus aureus [2] = assay: Antibacterial activity against Staphylococcus aureus ATCC 43300 assessed as reduction in bacterial growth incubated for 18 to 20 hrs by broth microdilution assay; assay type: functional; conditions: time 18-20 hrs
[3] = tested on: Staphylococcus epidermidis; assay: Antibacterial activity against […] Staphylococcus epidermidis RP62A assessed as reduction in bacterial growth incubated for 18 to 20 hrs by broth microdilution assay; assay type: functional; conditions: time 18-20 hrs
Enterococcus faecalis [4] = assay: Antibacterial activity against Enterococcus faecalis ATCC 29212 assessed as reduction in bacterial growth incubated for 18 to 20 hrs by broth microdilution assay; assay type: functional; conditions: time 18-20 hrs
Staphylococcus aureus [5] = assay: Drug resistance, ratio of MIC for Staphylococcus aureus ATCC 25923 after 20 days exposure to MIC for Staphylococcus aureus ATCC 25923 during first exposure; assay type: functional; conditions: time 20 day
Enterococcus faecalis [6] = assay: Antibacterial activity against vancomycin-resistant Enterococcus faecalis ATCC 51575 assessed as reduction in bacterial growth incubated for 18 to 20 hrs by broth microdilution assay; assay type: functional; conditions: time 18-20 hrs
Staphylococcus aureus [7] = assay: Drug resistance, ratio of MIC for methicillin-resistant Staphylococcus aureus after 20 days exposure to MIC for methicillin-resistant Staphylococcus aureus during first exposure; assay type: functional; conditions: time 20 day
Staphylococcus aureus [8] = assay: Antimicrobial activity against methicillin-resistant Staphylococcus aureus ATCC 43300 infected in Caenorhabditis elegans AU37 assessed as reduction in bacterial burden at 20 uM incubated for 18 hrs; assay type: functional; parameters: scale not given: the % may be the effect or the level left
Staphylococcus aureus [9] = assay: Antibacterial activity against Staphylococcus aureus ATCC 25923 assessed as reduction in bacterial growth incubated for 18 to 20 hrs by broth microdilution assay; assay type: functional; conditions: time 18-20 hrs
Staphylococcus aureus [10] = assay: Antibacterial activity against […] Staphylococcus aureus ATCC 43300 assessed as reduction in bacterial growth incubated for 18 to 20 hrs by broth microdilution assay; assay type: functional; conditions: time 18-20 hrs
Staphylococcus aureus [11] = assay: Antimicrobial activity against Staphylococcus aureus ATCC 25923 infected in Caenorhabditis elegans AU37 assessed as reduction in bacterial burden at 20 uM incubated for 18 hrs; assay type: functional; parameters: scale not given: the % may be the effect or the level left
Staphylococcus aureus [12] = assay: Antibiofilm activity against Staphylococcus aureus ATCC 25923 assessed as inhibition of biofilm viability at 100 uM incubated for 18 to 20 hrs by resazurin staining based assay; assay type: functional; conditions: time 18-20 hrs
Cell membrane [13] = assay: Induction of cell membrane permeability in Staphylococcus aureus ATCC 25923 assessed as increase in fluorescence intensity at 4 times MIC incubated for 30 mins by PI staining based analysis; assay type: cell membranes
Staphylococcus aureus [14] = assay: Antibiofilm activity against Staphylococcus aureus ATCC 25923 assessed as inhibition of biofilm biomass at 100 uM incubated for 18 to 20 hrs by crystal violet staining based assay; assay type: functional; conditions: time 18-20 hrs
Cell membrane [15] = assay: Induction of cell membrane permeability in Staphylococcus aureus ATCC 25923 assessed as increase in fluorescence intensity incubated for 30 mins by PI staining based analysis; assay type: cell membranes
Staphylococcus aureus [16] = assay: Antibiofilm activity against Staphylococcus aureus ATCC 25923 assessed as reduction in biofilm biomass at 100 uM incubated for 18 to 20 hrs by crystal violet staining based assay; assay type: functional; parameters: scale not given: the % may be the effect or the level left; conditions: time 18-20 hrs
Staphylococcus aureus [17] = assay: Antibacterial activity against Staphylococcus aureus ATCC 25923 assessed as inhibition of bacterial growth at 40 uM incubated for 18 to 24 hrs by broth microdilution assay relative to control; assay type: functional; conditions: time 18-24 hrs
Acinetobacter baumannii = assay: Antibacterial activity against Acinetobacter baumannii NCTC 13423 assessed as reduction in bacterial growth incubated for 18 to 20 hrs by broth microdilution assay; assay type: functional; conditions: time 18-20 hrs
[18] = Toxicity in Caenorhabditis elegans AU37 assessed as worms survival at 10 uM measured after 72 hrs
Erythrocyte = assay: Hemolytic activity in mouse RBC assessed as hemolysis at 62.5 uM incubated for 1 hr; assay type: toxicity, cell-based
[19] = Hemolytic activity in mouse RBC assessed as hemolysis at 250 uM incubated for 1 hr; assay type: toxicity, cell-based, Erythrocyte; conditions: mouse red blood cells (erythrocytes), read-out: Activity
[20] = Cytotoxicity against human THP-1 cells assessed as reduction in cell viability incubated for 24 hrs by resazurin staining based analysis; assay type: toxicity
[21] = Dissociation constant, pKa of compound; assay type: physicochemical
Cell membrane [22] = assay: Induction of cytoplasmic membrane depolarization in Staphylococcus aureus ATCC 25923 assessed as increase in fluorescence intensity at 4 times MIC measured for 30 mins by DiSC3(5) dye based fluorescence method; assay type: cell membranes
THP-1 = assay: Cytotoxicity against human THP-1 cells assessed as reduction in cell viability at 50 uM incubated for 24 hrs by resazurin staining based analysis relative to control; assay type: toxicity; conditions: thp-1, 24 h
Pseudomonas aeruginosa = assay: Antibacterial activity against Pseudomonas aeruginosa ATCC 15442 assessed as reduction in bacterial growth incubated for 18 to 20 hrs by broth microdilution assay; assay type: functional; conditions: time 18-20 hrs
[23] = Hemolytic activity in mouse RBC assessed as hemolysis at 125 uM incubated for 1 hr; assay type: toxicity, cell-based, Erythrocyte; conditions: mouse red blood cells (erythrocytes), read-out: Activity

Structure (SMILES): O=C(O)c1cn(C2CC2)c2cc(N3CCNCC3)c(F)cc2c1=O [CIPROFLOXACIN]
- MIC (Enterococcus faecium): 40 µM (≈ 13.3 µg/mL)
- MIC [1]: 0.625 µM (≈ 0.207 µg/mL)
- MIC (Staphylococcus aureus [2]): 2.5 µM (≈ 0.828 µg/mL)
- MIC [3]: 1.25 µM (≈ 0.414 µg/mL)
- MIC (Enterococcus faecalis [4]): 2.5 µM (≈ 0.828 µg/mL)
- Ratio (Staphylococcus aureus [5]): 80
- MIC (Enterococcus faecalis [6]): 2.5 µM (≈ 0.828 µg/mL)
- Ratio (Staphylococcus aureus [7]): 170

Structure (SMILES): CN[C@H](CC(C)C)C(=O)N[C@H]1C(=O)N[C@@H](CC(N)=O)C(=O)N[C@H]2C(=O)N[C@H]3C(=O)N[C@H](C(=O)N[C@H](C(=O)O)c4cc(O)cc(O)c4-c4cc3ccc4O)[C@H](O)c3ccc(c(Cl)c3)Oc3cc2cc(c3O[C@@H]2O[C@H](CO)[C@@H](O)[C@H](O)[C@H]2O[C@H]2C[C@](C)(N)[C@H](O)[C@H](C)O2)Oc2ccc(cc2Cl)[C@H]1O [VANCOMYCIN]
- MIC (Enterococcus faecium): 40 µM (≈ 58 µg/mL)
- MIC [1]: 2.5 µM (≈ 3.62 µg/mL)
- MIC (Staphylococcus aureus [2]): 1.25 µM (≈ 1.81 µg/mL)
- Activity (Staphylococcus aureus [8]): 61%
- MIC [3]: 2.5 µM (≈ 3.62 µg/mL)
- MIC (Enterococcus faecalis [4]): 2.5 µM (≈ 3.62 µg/mL)
- MIC (Staphylococcus aureus [9]): 2.5 µM and 3.6 µg/mL
- MIC (Enterococcus faecalis [6]): 40 µM (≈ 58 µg/mL)
- MIC (Staphylococcus aureus [10]): 1.25 µM (≈ 1.81 µg/mL)
- Activity (Staphylococcus aureus [11]): 72%
- inhibition at 100 µM (Staphylococcus aureus [12]): 50%
- Activity (Cell membrane [13]): inactive
- inhibition at 100 µM (Staphylococcus aureus [14]): 25%

Structure (SMILES): CC[C@H](C)[C@H](NC(=O)CN)C(=O)NCC(=O)N[C@@H](C)C(=O)N[C@H](C(=O)N[C@@H](CC(C)C)C(=O)N[C@@H](CCCCN)C(=O)N[C@H](C(=O)N[C@@H](CC(C)C)C(=O)N[C@H](C(=O)N[C@H](C(=O)NCC(=O)N[C@@H](CC(C)C)C(=O)N1CCC[C@H]1C(=O)N[C@@H](C)C(=O)N[C@@H](CC(C)C)C(=O)N[C@H](C(=O)N[C@@H](CO)C(=O)N[C@@H](Cc1c[nH]c2ccccc12)C(=O)N[C@H](C(=O)N[C@@H](CCCCN)C(=O)N[C@@H](CCCNC(=N)N)C(=O)N[C@@H](CCCCN)C(=O)N[C@@H](CCCNC(=N)N)C(=O)N[C@@H](CCC(N)=O)C(=O)N[C@@H](CCC(N)=O)C(N)=O)[C@@H](C)CC)[C@@H](C)CC)[C@@H](C)O)[C@@H](C)O)C(C)C)C(C)C
- Activity (Cell membrane [15]): Active

Structure (SMILES): O=C(O)CC1CCc2c1[nH]c1ccc(OCc3cnc(C4CCCC4)c(C(F)(F)F)c3)cc21 (centres undefined)
- MIC (Staphylococcus aureus [9]): 20 µM and 9.2 µg/mL
- inhibition at 100 µM (Staphylococcus aureus [12]): > 90%
- Activity (Staphylococcus aureus [16]): 50%
- inhibition at 100 µM (Staphylococcus aureus [14]): > 90%
- inhibition at 40 µM (Staphylococcus aureus [17]): ≤ 90%

Structure (SMILES): O=C(O)C[C@H]1CCc2c1[nH]c1ccc(OCc3ccc(C4CCCC4)c(C(F)(F)F)c3)cc21 [ETRASIMOD]
- MIC (Acinetobacter baumannii): > 200 µM
- MIC (Enterococcus faecium): 5 µM (≈ 2.29 µg/mL)
- Activity [18]: Non-Toxic
- MIC [1]: 10 µM (≈ 4.57 µg/mL)
- Activity (Erythrocyte): Non-Toxic
- MIC (Staphylococcus aureus [2]): 5 µM (≈ 2.29 µg/mL)
- Activity (Staphylococcus aureus [8]): 77%
- MIC [3]: 5 µM (≈ 2.29 µg/mL)
- MIC (Enterococcus faecalis [4]): 5 µM (≈ 2.29 µg/mL)
- MIC (Staphylococcus aureus [9]): 5 µM and 2.3 µg/mL
- hemolysis at 1 h, 250 µM [19]: 100%
- CC50 at 24 h [20]: 57.7 µM
- pKa [21]: 4
- MIC (Enterococcus faecalis [6]): 10 µM (≈ 4.57 µg/mL)
- Activity (Cell membrane [22]): inactive
- Activity (THP-1): 64%
- MIC (Staphylococcus aureus [10]): 5 µM (≈ 2.29 µg/mL)
- MIC (Pseudomonas aeruginosa): > 200 µM
- Activity (Staphylococcus aureus [11]): >85%
- inhibition at 100 µM (Staphylococcus aureus [12]): 80%
- inhibition at 100 µM (Staphylococcus aureus [14]): 20%
- hemolysis at 1 h, 125 µM [23]: 7%
